Assay results: ChEMBL document CHEMBL4002601, “A triple exon-skipping luciferase reporter assay identifies a new CLK inhibitor pharmacophore” (Bioorg Med Chem Lett, 2017)

Experiments:
[1] = target: Vascular endothelial growth factor receptor 2 (Homo sapiens) (UniProt P35968); test: Inhibition of human KDR using myelin basic protein as substrate in presence of [gamma-33P]ATP at 1 uM after 40 mins by scintillation counter method
[2] = target: T1, Aurora kinase A (Homo sapiens) (UniProt O14965); test: Inhibition of human Aurora-A using Kemptide as substrate in presence of [gamma-33P]ATP at 1 uM after 40 mins by scintillation counter method
T1 sequence (whole entry): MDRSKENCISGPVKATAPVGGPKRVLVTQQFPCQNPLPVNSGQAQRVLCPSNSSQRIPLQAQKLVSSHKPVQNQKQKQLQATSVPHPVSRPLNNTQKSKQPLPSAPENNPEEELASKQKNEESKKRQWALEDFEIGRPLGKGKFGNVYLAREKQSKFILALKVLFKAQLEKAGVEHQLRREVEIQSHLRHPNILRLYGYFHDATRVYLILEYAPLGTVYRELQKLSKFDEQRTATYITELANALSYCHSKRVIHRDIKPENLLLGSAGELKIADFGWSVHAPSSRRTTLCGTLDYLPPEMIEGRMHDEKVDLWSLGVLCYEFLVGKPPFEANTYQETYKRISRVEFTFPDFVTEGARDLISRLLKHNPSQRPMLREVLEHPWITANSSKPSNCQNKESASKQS

[3] = target: Dual specificity protein kinase CLK1 (Homo sapiens, UniProt P49759); test: Inhibition of CLK mediated SF3B1 activation in human SK-MEL-2 cells assessed as MDM2-pre mRNA exon skipping after 4 hrs by luciferase reporter gene assay relative to control; assay type: cell-based; conditions: read-out: EC50
[4] = target: PI3K p110 beta/p85 alpha (Homo sapiens) (UniProt P27986+P42338); test: Inhibition of human PI3K p110beta/pI3K p85alpha at 1 uM using PIP2 as substrate in presence of biotinylated PIP3 and ATP and measured after 30 mins by HTRF method; assay type: protein-complex assay
[5] = target: CDK4/Cyclin D3 (Homo sapiens, UniProt P11802); test: Inhibition of human CDK4/cyclinD3 using Histone H1 as substrate in presence of [gamma-33P]ATP after 40 mins by scintillation counter method; assay type: protein-complex assay
[6] = target: Mitogen-activated protein kinase 10 (Homo sapiens) (UniProt P53779); test: Inhibition of human JNK3 using substrate in presence of [gamma-33P]ATP at 1 uM after 40 mins by scintillation counter method
[7] = target: CDK6/cyclin D3 (Homo sapiens, UniProt Q00534); test: Inhibition of human CDK6/cyclinD3 using Histone H1 as substrate in presence of [gamma-33P]ATP after 40 mins by scintillation counter method; assay type: protein-complex assay
[8] = target: Serine/threonine-protein kinase B-raf (Homo sapiens) (UniProt P15056); test: Inhibition of human BRAF using myelin basic protein as substrate in presence of [gamma-33P]ATP at 1 uM after 40 mins by scintillation counter method
[9] = target: Dual specificity protein kinase CLK3 (Homo sapiens, UniProt P49761); test: Inhibition of human CLK3 using ERMRPRKRQGSVRRRV as substrate in presence of [gamma-33P]ATP after 40 mins by scintillation counter method
[10] = target: Tyrosine-protein kinase ABL1 (Homo sapiens) (UniProt P00519); test: Inhibition of human Abl using EAIYAAPFAKK as substrate in presence of [gamma-33P]ATP at 1 uM after 40 mins by scintillation counter method
[11] = target: T2, Mitogen-activated protein kinase kinase kinase 2 (Homo sapiens) (UniProt Q9Y2U5); test: Inhibition of human MEKK2 using myelin basic protein as substrate in presence of [gamma-33P]ATP at 1 uM after 40 mins by scintillation counter method
T2 sequence (whole entry): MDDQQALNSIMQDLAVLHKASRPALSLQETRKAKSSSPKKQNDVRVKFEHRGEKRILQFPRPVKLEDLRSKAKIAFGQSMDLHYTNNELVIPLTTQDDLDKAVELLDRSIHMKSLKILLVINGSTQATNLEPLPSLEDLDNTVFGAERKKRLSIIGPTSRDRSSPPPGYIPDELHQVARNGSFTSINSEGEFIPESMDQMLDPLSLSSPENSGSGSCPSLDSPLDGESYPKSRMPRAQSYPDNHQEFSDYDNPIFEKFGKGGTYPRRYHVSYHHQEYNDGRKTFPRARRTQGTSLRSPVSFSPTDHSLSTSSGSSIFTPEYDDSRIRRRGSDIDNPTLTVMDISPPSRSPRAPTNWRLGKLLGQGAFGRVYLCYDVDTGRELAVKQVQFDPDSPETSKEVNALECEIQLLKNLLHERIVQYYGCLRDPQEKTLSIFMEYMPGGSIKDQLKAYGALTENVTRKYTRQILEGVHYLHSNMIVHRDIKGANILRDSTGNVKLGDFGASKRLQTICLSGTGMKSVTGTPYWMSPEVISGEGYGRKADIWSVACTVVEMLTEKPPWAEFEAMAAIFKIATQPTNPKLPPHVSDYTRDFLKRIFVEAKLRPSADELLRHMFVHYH

[12] = target: Macrophage colony-stimulating factor 1 receptor (Homo sapiens) (UniProt P07333); test: Inhibition of human Fms using KKKSPGEYVNIEFG as substrate in presence of [gamma-33P]ATP at 1 uM after 40 mins by scintillation counter method
[13] = target: T3, Inhibitor of nuclear factor kappa-B kinase subunit beta (Homo sapiens) (UniProt O14920); test: Inhibition of human IKKbeta using KKKKERLLDDRHDSGLDSMKDEE as substrate in presence of [gamma-33P]ATP at 1 uM after 40 mins by scintillation counter method
T3 sequence (whole entry): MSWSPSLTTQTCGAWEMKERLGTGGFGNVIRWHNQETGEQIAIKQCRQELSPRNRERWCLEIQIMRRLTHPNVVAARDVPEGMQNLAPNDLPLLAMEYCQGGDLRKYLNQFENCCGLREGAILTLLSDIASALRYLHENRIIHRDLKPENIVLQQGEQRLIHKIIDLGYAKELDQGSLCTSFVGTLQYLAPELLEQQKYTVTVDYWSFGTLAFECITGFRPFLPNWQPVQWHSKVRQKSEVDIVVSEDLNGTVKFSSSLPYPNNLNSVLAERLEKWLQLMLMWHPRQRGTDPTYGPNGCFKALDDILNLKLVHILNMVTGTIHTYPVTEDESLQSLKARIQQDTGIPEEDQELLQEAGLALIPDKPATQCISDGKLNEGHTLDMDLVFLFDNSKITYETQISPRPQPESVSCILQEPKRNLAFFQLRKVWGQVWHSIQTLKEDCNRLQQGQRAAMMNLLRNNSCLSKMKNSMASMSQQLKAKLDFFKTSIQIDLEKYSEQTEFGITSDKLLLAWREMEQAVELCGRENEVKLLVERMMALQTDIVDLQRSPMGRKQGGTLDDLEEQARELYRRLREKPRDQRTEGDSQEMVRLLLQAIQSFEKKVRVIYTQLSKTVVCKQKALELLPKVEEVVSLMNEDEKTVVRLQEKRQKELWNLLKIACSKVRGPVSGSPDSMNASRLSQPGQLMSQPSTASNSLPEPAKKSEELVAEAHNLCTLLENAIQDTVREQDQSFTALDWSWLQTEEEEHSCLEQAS

Chain of Vascular endothelial growth factor receptor 2 (Homo sapiens) (P35968 whole entry): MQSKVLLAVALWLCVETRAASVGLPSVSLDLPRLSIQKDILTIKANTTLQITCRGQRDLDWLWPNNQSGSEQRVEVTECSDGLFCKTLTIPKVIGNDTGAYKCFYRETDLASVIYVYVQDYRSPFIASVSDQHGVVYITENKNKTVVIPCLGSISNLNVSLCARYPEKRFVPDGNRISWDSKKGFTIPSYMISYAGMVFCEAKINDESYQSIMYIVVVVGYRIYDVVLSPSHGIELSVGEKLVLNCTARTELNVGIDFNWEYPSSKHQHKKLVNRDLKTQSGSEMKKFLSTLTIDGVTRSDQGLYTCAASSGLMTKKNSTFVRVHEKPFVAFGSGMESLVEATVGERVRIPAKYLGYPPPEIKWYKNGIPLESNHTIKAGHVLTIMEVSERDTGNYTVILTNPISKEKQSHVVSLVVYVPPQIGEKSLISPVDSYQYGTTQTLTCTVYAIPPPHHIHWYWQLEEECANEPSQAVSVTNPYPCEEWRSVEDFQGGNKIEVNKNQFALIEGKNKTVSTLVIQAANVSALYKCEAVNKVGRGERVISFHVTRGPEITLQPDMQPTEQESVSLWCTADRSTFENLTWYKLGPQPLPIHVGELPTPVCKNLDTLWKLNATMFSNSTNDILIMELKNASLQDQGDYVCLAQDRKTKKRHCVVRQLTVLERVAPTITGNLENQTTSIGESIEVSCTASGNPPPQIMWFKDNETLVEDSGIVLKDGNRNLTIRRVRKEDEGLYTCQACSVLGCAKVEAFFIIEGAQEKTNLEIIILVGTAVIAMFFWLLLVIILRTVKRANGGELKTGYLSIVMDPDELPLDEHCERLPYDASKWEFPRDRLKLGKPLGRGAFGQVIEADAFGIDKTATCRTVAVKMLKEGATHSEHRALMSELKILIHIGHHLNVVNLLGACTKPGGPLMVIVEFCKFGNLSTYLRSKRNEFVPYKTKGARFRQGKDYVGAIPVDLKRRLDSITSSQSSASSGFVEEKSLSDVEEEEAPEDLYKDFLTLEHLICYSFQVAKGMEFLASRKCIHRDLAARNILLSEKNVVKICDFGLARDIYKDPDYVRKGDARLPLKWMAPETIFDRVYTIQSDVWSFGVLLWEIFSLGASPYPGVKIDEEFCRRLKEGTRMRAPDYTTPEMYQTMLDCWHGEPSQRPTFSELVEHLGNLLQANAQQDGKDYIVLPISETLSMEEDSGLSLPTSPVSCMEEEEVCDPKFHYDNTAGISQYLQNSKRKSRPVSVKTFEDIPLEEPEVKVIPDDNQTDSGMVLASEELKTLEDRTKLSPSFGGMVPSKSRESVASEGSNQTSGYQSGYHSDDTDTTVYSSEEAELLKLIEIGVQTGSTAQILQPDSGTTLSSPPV
Chain of PI3K p110 beta/p85 alpha (Homo sapiens) (P27986 2-724 limits assumed): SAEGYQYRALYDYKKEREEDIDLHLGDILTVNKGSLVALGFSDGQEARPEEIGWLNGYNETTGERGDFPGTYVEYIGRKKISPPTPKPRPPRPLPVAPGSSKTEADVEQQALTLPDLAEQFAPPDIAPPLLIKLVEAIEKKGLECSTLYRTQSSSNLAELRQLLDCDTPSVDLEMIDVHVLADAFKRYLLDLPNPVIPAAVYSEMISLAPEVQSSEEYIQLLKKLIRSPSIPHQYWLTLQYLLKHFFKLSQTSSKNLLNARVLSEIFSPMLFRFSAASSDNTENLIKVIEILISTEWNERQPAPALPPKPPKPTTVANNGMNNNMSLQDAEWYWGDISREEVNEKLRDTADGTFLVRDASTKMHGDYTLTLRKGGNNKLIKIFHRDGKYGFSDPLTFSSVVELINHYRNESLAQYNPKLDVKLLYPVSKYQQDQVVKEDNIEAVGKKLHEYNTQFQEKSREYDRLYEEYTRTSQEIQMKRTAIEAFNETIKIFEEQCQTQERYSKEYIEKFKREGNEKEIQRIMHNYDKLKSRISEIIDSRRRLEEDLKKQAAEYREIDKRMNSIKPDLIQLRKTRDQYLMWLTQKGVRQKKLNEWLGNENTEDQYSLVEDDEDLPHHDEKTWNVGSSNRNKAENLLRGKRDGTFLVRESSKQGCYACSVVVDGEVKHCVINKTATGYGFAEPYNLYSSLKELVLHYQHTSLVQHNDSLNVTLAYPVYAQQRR
Chain of PI3K p110 beta/p85 alpha (Homo sapiens) (P42338 whole entry partner): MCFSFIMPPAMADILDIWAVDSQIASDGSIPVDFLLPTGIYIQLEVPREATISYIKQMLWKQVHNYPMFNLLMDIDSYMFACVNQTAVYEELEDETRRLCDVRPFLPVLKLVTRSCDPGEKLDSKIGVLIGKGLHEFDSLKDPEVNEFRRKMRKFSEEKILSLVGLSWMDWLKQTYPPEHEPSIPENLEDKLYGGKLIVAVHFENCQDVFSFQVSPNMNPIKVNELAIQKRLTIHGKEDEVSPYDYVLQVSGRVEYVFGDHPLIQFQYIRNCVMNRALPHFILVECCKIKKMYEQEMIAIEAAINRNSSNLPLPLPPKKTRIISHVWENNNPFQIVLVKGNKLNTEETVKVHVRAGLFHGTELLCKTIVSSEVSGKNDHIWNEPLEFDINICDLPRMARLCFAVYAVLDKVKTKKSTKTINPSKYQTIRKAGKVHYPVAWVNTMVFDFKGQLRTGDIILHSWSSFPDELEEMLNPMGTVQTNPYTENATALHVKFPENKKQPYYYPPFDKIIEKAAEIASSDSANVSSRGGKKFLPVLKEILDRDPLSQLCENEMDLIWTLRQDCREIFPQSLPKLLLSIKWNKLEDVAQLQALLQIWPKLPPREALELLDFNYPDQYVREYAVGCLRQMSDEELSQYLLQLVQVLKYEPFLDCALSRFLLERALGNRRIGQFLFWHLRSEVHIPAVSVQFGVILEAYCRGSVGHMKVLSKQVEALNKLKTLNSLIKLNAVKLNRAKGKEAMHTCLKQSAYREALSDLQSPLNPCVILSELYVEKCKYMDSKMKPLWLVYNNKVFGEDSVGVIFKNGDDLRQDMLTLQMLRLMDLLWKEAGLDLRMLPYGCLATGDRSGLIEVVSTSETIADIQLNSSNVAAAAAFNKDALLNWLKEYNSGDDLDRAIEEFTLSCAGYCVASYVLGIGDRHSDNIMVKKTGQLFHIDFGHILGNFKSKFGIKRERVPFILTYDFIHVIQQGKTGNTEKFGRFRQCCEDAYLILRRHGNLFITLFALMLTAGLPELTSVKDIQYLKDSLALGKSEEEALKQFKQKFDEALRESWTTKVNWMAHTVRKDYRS
Chain of Serine/threonine-protein kinase B-raf (Homo sapiens) (P15056 whole entry): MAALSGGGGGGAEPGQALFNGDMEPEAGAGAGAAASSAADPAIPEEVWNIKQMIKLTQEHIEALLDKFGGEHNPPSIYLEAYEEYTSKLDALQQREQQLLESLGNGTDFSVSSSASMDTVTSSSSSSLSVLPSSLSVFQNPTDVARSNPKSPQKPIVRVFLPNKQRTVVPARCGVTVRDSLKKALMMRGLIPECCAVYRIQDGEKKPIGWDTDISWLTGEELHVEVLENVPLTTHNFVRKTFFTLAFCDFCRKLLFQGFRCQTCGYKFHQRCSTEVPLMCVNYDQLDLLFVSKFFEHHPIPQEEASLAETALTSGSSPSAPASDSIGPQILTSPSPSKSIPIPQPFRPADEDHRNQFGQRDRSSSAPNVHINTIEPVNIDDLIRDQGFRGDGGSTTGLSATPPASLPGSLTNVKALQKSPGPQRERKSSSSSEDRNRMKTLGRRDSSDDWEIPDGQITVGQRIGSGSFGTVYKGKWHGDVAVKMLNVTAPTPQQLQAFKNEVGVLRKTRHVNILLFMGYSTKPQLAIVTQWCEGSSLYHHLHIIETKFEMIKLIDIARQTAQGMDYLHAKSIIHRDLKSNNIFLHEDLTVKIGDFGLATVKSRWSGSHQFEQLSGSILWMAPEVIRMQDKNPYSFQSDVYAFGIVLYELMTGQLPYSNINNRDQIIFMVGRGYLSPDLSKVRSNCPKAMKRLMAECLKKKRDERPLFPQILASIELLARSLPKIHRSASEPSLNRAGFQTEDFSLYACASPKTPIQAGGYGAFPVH
Chain of Mitogen-activated protein kinase 10 (Homo sapiens) (P53779 whole entry): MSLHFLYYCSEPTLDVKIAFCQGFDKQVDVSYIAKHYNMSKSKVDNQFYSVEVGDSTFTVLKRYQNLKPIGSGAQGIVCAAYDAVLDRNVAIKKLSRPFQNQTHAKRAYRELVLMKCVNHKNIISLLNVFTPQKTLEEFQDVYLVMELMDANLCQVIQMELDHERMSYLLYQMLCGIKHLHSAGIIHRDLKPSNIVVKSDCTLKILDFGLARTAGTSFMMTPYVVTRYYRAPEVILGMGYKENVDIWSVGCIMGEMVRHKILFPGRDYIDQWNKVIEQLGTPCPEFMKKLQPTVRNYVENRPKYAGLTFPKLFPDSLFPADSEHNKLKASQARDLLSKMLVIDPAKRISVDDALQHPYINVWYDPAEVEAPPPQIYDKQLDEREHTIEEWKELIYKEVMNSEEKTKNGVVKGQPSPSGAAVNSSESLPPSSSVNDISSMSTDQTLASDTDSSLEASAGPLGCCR
Chain of Dual specificity protein kinase CLK3 (P49761 whole entry): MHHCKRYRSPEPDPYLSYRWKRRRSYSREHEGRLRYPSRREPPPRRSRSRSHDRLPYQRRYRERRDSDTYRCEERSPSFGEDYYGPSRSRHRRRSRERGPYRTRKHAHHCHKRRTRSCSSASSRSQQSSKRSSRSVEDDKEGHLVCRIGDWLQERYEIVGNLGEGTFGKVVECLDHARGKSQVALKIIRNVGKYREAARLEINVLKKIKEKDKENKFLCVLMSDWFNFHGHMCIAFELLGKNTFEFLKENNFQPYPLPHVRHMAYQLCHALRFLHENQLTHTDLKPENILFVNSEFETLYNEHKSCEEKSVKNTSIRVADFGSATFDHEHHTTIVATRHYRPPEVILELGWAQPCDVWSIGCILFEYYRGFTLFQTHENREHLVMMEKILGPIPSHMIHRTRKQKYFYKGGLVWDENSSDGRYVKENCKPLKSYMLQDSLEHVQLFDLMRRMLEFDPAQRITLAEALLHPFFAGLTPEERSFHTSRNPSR

SMILES	inhibition [1] [%]	inhibition [2] [%]	EC50 [3] [µM]	inhibition [4] [%]	IC50 [5] [µM]	inhibition [6] [%]	IC50 [7] [µM]	inhibition [8] [%]	IC50 [9] [µM]	inhibition [10] [%]	inhibition [11] [%]	inhibition [12] [%]	inhibition [13] [%]
CC(C)n1cnc2c(Nc3cccc(Cl)c3)nc(N[C@H]3CCCC[C@@H]3N)nc21	16	4	11.7	5	> 1	6	> 1	10	> 1	-2	47	-1	-2
CC(C)n1cnc2c(Nc3cc(N)cc(Cl)c3)nc(N[C@@H]3CCCC[C@@H]3N)nc21 (racemic)	4	13		4		-10		5		8	48	9	-9
CC(C)n1cnc2c(Nc3cccc(Cl)c3)nc(N[C@@H]3CCCC[C@@H]3N)nc21	-6	-5	4.3	4	0.541	-5	> 1	21	> 1	2	18		-5
